Series [1] has as its system mouse bone marrow mesenchymal stem cell line (MSC-1 cells), PDGFRα-positive. The series can be described thus: Migration assay (Boyden / 48-well chemotaxis chamber) on bone marrow mesenchymal stem cell line MSC-1. It is filed as cell-based. The essentials:
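Mouse MSC-1 cells (3×10^6 cells/ml in D-MEM with 10% FBS) loaded in the upper wells of a 48-well Boyden chamber with 8 μm polycarbonate membrane; mouse HMGB1 peptides or HEK293-made HMGB1 in lower wells at 100 μg/ml, 5 μM or 10 μM; PBS as negative control. After 4 h at 37° C, migrated cells were Diff-Quik stained.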

The test system of series [2] is CD11b-negative, PDGFRα-positive cells (primary cultured bone marrow mesenchymal cells). The series can be described thus: Migration assay on primary cultured CD11b-negative, PDGFRα-positive bone marrow cells. It is filed as cell-based, mouse. As to conditions: peptide produced in HEK293, 40 μg/ml, FIG. 5. The method, then:
Thigh and tibial bones were excised from donor mice: B6.129S4-Pdgfratm11(EGFP)Sor/J (PDGFRα-GFP Mouse). After removing attached muscles and other tissues, the bones were crushed finely and incubated with 0.2% collagenase (Roche, REF: 10103586001)/DMEM/2% FBS(filtrated) at 37° C. for 40 minutes. Then, cell aggregates and muscle tissues were removed by filtration through a 40-μm nylon mesh. After centrifugation at 1200 rpm for 10 minutes, the resulting cells were suspended in αMEM containing 10% FBS and 1% P/S and cultured in an incubator under 5% CO2 at 37° C. until they reached 100% confluence. The cells were harvested and the following experiment was carried out according to the protocol attached to CD11b MicroBeads (Miltenyi Biotec; order No: 130-049-601). The cells were adjusted to 10^7 cells/90 μl with PBS(−), and CD11b MicroBeads were added at 10 μl/10^7 cells. After 15 minutes of reaction at 4° C., the cells were washed twice and suspended in 500 μl of PBS(−). The tube was placed in AutoMACS separator and the cells were collected according to the separation program “Depletes”. The collected cells were plated onto an adherent cell culture dish. After adhesion, GFP fluorescence was observed using a fluorescence microscope. The above-described peptide 1-44 produced in HEK293 was tested for the migration-promoting activity using CD11b-negative cells. […]

The nature of series [3]: Side effects after administration of recombinant HMGB1 (previous studies of the inventors). As to conditions: high concentration administered to mice or rats. Type of series: in vivo. An excerpt: As described above, HMGB1 pharmaceuticals are revolutionary therapeutic agents that promote the recruitment of bone marrow mesenchymal stem cells into blood and accumulation of the cells to damaged tissues, thereby inducing tissue regeneration in the body. […] However, there are also reports that HMGB1 has an inflammatory effect. As described above, there are several findings on HMGB1; however, nothing is known about the effect of fragments of the HMGB1 protein on mesenchymal stem cells or what roles they play in tissue regeneration.

Series [4] relates to skin flap made on the back of a rat. Description: Skin flap (skin damage) model on the back of rats. It is filed as in vivo. The following applies: six weeks after skin flap production; 50 μg/administration/day, five administrations, FIG. 26.
The test system is the same in series [5]. The series can be described thus: Skin flap (skin damage) model on the back of rats. It is filed as in vivo. The method, then: Experimental animals used were SD rats (male, eight weeks old). After sufficiently deep anesthesia by isoflurane inhalation, a rectangular skin incision of 3 cm width×7 cm length was made on the back. The cephalic side was left uncut, and the skin was thoroughly detached from the subcutaneous tissues. The three incised sides were sutured to the surrounding skin using #4 silk suture, and protected with Tegaderm (3M) to prevent bacterial infection.
The full-length mouse HMGB1 (100 μg/administration/day) produced in HEK293 and chemically synthesized HMGB1 peptide (amino acids 1 to 44; 50 μg/administration/day) were diluted to 200 μl with phosphate buffer and administered to rats via the caudal vein. The first administration was performed 6 hours after the surgery, and then the agents were administered every 24 hours a total of five times. Phosphate-buffered physiological saline was administered as a negative control. Tegaderm was removed after one week, and the wound region was observed weekly to measure the areas of necrosis and ulceration.
Experimental animals used were 15 SD rats (male, eight weeks old) per group. After sufficient anesthesia by isoflurane inhalation, a rectangular skin incision of 3 cm width×7 cm length was made on the back. The cephalic side was left uncut, and the skin was thoroughly detached from the subcutaneous tissues. The incised three sides were sutured to the surrounding skin using #4 silk suture, and protected with Tegaderm (3M) to prevent bacterial infection.
Chemically synthesized HMGB1 peptide (amino acids 1-44; 50 μg/administration/day) or HMGB1 peptide (amino acids 17-25; 50 μg/administration/day) was diluted to 200 μl with phosphate buffer and administered to the rats with experimental wound. The first administration was performed 6 hours after the surgery, and then the agents were administered every 24 hours a total of five times. Phosphate-buffered physiological saline was administered as a negative control. Tegaderm was removed after one week, and the wound was observed two weeks after the wound production. Uncured areas (ulceration and necrosis) were measured.

The subject of another series is mouse skin fibroblasts. The series can be described thus: Migration assay on mouse skin fibroblasts. It is filed as cell-based. The following applies: synthetic peptide, PDGFRα-positive cells, FIG. 13A. The method, then: Newborn C57/B16 mice were euthanized using isoflurane and carbon dioxide inhalation. Then, the mice were washed thoroughly with EtOH and PBS. The skin together with dermis was exfoliated and the blood was washed off with PBS. The exfoliated skin was cut into fine pieces with scissors. The skin pieces were placed in DMEM (Nacalai tesque, Cat: 08458-45) containing 0.2% collagenase (Roche, REF: 10103586001) and shaken at 37° C. for 30 minutes. The reaction was stopped with DMEM/30% FBS/P/S. The resulting cells were centrifuged at 160×G for 5 minutes and plated in a 10-cm dish. The cells were cultured under 5% CO2 at 37° C. and the medium was changed every three days. The cells were passaged when they reached 80% to 90% confluency. The cells were harvested from the dish using trypsin. After inactivation of trypsin with D-MEM containing 10% FBS, a synthetic peptide consisting of the amino acid sequence of positions 1 to 34 (1-34) was assessed for migration-promoting activity according to the migration assay method described above.

For another series, the system named is mouse keratinocytes. The series can be described thus: Migration assay on mouse keratinocytes. It is filed as cell-based. The following applies: synthetic peptide, PDGFRα-negative cells, FIG. 12A. The method, then: Newborn C57/B16 mice were euthanized using isoflurane and carbon dioxide inhalation. Then, the mice were washed thoroughly with EtOH and PBS. The skin together with dermis was exfoliated and the blood was washed off with PBS. The exfoliated skin was placed in Dispase I (Sanko Junyaku Co., Cat: GD81060) at 4° C. for 16 hours. The epidermis and dermis were detached with forceps, and the epidermis was placed in trypsin (Nacalai tesque, Cat: 3554-64) at 37° C. for 10 minutes. When white turbidity began to appear, the reaction was stopped with S-MEM (GIBCO, Cat: 11380)/15% FBS(Ca-)P/S. The resulting cells were centrifuged at 160×G for 5 minutes, and suspended in CnT-07 medium (CELLnTEC, Cat: CnT-07 BM) and plated in a 10-cm dish. The cells were cultured under 5% CO2 at 37° C. and the medium was changed every three days. The cells were passaged when they reached 80% to 90% confluency. The cells were harvested from the dish using trypsin. After inactivation of trypsin with DMEM containing 10% FBS, a synthetic peptide consisting of the amino acid sequence of positions 1 to 34 (1-34) was examined for migration-promoting activity according to the migration assay method described above.

The conditions of series [6]: Youn et al., J Immunol 2008; cited from earlier work.
Where [7] appears, read: 2 μM, area of migrated cells by image analysis, FIG. 10.
Setting [8] is: protein and peptides produced using HEK293 (mouse HMGB1), 50 μg/ml, 4 h, FIG. 2A.

This is an account of results in US10550165B2, “Peptide for inducing regeneration of tissue and use thereof” (STEMRIM INC., priority 2011, dated 2020).

For “1-44: peptide of positions 1 to 44 of mouse HMGB1, produced using HEK293 (MGKGDPKKPRGKMSSYAFFVQTCREEHKKKHPDASVNFSEFSKK; UniProt P63158 1-44, looked up, fragment)”, in series [1] (setting [7]), the “migration-promoting activity relative to the full-length HMGB1, compared per equal mass” value is given as “about 8 times” and the “migration-promoting activity relative to the full-length HMGB1, compared per equal mole” value is listed as “about 1.6 times”. Moreover, the migration-promoting activity entry in series [1] (setting [8]) is given as “showed migration-promoting activity”. Also, the migration-promoting activity result in series [2] was “strong migration-promoting activity”.
Consider “recombinant HMGB1 protein: recombinant HMGB1 protein administered to mice or rats in the inventors' previous studies”, for which the side effects entry in series [3] is reported as “no side effects were observed”.
Turning to “(17-25): synthetic peptide consisting of the amino acid sequence from positions 17 to 25 of HMGB1 (AFFVQTCRE; UniProt P09429 17-25, looked up, fragment)”, the “ratio of the uncured area relative to the area of the whole skin flap, average” value in series [4] amounted to 3.5%; in series [5] (two weeks after skin flap production, 50 μg/administration/day, five administrations, 15 SD rats per group, FIG. 26), 9.1%. Moreover, in series [1] (synthetic peptides, 5 μM, FIGS. 8A and 8B), the migration-promoting activity entry is listed as “weak activity”.
“(1-34): synthetic peptide consisting of the amino acid sequence from positions 1 to 34 of HMGB1 (MGKGDPKKPRGKMSSYAFFVQTCREEHKKKHPDA; UniProt P09429 1-34, looked up, fragment)”: the “migration-promoting activity on skin fibroblasts” value with mouse skin fibroblasts is reported as “exhibited migration-promoting activity”. In addition, the “migration-promoting activity on mouse keratinocytes” value in the series with mouse keratinocytes was “did not show migration-promoting activity”. The migration-promoting activity entry in series [1] (synthetic peptides, 100 μg/ml, positive control 1-215(HEK), FIG. 7) is reported as “activity comparable to or higher than that of the positive control”.
For “1-215: whole mouse HMGB1 produced in HEK293, positive control [reference compound]”, in series [6], the LPS-binding activity entry was “known to have the binding activity with lipopolysaccharide (LPS)”. For the same substance, in series [5] (one to three weeks after the skin flap was made, versus negative control, FIG. 25), the “area of wound section (necrosed section) in the skin flap” value is given as “effect of shrinking the wound section was confirmed”. For the same substance, the “rats in which skin necrosis developed” value in series [5] (one week after surgery, caudal vein, five administrations, full-length 100 μg, peptide 50 μg/administration/day, negative control four of five) was “three of five rats”. Moreover, the “rats with severe skin contracture” value in series [5] (seven weeks after surgery, same regimen, negative control four of five, FIG. 24) is listed as “three of five rats”. The migration-promoting activity entry in series [1] (setting [8]) is given as “showed migration-promoting activity”.
